This test concerns CD4+CD25+FoxP3+ regulatory T cells and CD8+ T cells. The test can be described thus: Flow cytometry of CD8+ T cell and Treg subsets during an immunochemotherapy cycle. It is filed as in vivo, human. The conditions noted are these: day 12 of temozolomide cycle (5/21 schedule), vaccine on day 19. The source says: To characterize the response of the various T cell populations during a cycle of temozolomide (5/21 schedule) and concurrently administered vaccine (day 19 on this example), we obtained peripheral blood on days 0, 3, 5, 12, 19, 23, 25 and 26. By flow analysis cytometry, we investigated the percentage of the CD8+ T cell and CD4+CD25+FoxP3+ regulatory T cells subsets during an immunochemotherapy cycle. All fluorescence-conjugated monoclonal antibodies (mAb) (PerCP-Cy5.5-CD3, FITC-CD8, APC-CD4 and PE-CD25) were purchased from BD Biosciences except the FITC-labeled mAb of FoxP3 was made by eBioscience. The surface and intracellular staining of peripheral blood cells were performed according to the standard procedures provided by the manufacturer. Results were analyzed by FACSCalibur flow cytometer using Cellquest Pro software (BD Biosciences). In contrast to the decline of the CD8+ T cell subset, the Treg population started to increase after the administration of temozolomide for 3 days and reached its peak (0.9% of total CD4^+ T cells) on day 12. The Tregs then began to drop until day 23 while the CD8^+ T cell numbers started to recover. At the end of the course, both of CD8^+ T cell and Treg populations recovered to pre-treatment levels.

As for `Cn1nnc2c(C(N)=O)ncn2c1=O` [temozolomide], the Treg population peak is 0.9 % of total CD4+ T cells.

These data come from patent US9399662B2, “Concurrent chemotherapy and immunotherapy” (Duke University, priority 2005, dated 2016).
